Assay results: ChEMBL document CHEMBL4145665, “Structure-Activity Relationship of Novel and Selective Biaryl-Chroman GPR40 AgoPAMs” (ACS Med Chem Lett, 2018)

Key:
[1] = test system: Rattus norvegicus; test: Antidiabetic activity in Goto Kakizaki rats assessed as inhibition of blood glucose AUC at 0.3 mg/kg, po pretreated for 1 hr followed by dextrose challenge measured after 20 to 60 mins by OGTT method relative to control; type: functional
[2] = target: T1, Free fatty acid receptor 1 (Homo sapiens, UniProt O14842); test: Agonist activity at recombinant human GPR40 expressed in HEK293 cells assessed as increase in IP1 accumulation measured after 60 mins by HTRF assay; type: functional, cell-based
T1 sequence (O14842 whole entry): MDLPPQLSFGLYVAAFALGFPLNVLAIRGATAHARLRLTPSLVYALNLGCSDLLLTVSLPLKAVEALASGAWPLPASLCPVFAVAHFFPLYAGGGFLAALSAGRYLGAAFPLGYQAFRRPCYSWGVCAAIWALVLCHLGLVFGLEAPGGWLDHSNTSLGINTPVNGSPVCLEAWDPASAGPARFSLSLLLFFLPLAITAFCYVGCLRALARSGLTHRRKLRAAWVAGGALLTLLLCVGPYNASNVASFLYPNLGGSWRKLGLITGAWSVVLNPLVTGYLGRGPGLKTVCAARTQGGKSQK

[3] = target: T1, Free fatty acid receptor 1; test: Agonist activity at recombinant human GPR40 expressed in HEK293 cells assessed as increase in IP1 accumulation measured after 60 mins in presence of 100% human serum by HTRF assay; type: functional, cell-based
[4] = test system: Rattus norvegicus; test: Antidiabetic activity in Sprague-Dawley rat assessed as inhibition of blood glucose AUC at 3 mg/kg, po treated prior to dextrose challenge and measured after 20 to 60 mins by IPGTT relative to control; type: functional
[5] = target: Free fatty acid receptor 1 (Rattus norvegicus, UniProt Q8K3T4); test: Agonist activity at recombinant rat GPR40 expressed in CHOK1 cells assessed as increase in IP1 accumulation measured after 60 mins by HTRF assay; type: functional, cell-based
Free fatty acid receptor 1 (Rattus norvegicus, UniProt Q8K3T4), sequence (Q8K3T4 whole entry): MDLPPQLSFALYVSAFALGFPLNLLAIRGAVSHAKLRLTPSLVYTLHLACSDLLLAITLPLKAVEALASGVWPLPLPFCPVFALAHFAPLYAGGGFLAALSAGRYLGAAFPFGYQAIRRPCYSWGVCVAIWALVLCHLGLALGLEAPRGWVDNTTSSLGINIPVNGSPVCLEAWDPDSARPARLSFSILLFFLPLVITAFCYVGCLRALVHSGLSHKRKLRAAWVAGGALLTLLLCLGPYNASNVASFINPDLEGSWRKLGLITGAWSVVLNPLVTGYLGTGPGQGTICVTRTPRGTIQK

[6] = test system: Rattus norvegicus; test: Antidiabetic activity in po dosed Goto Kakizaki rats assessed as reduction in blood glucose excursion pretreated for 1 hr followed by dextrose challenge measured after 20 to 60 mins by OGTT method; type: functional; settings: read-out: MED
[7] = Fraction unbound in Wistar-Han rat plasma at 1 mg/kg, iv or 2 mg/kg, po administered as single dose; type: ADME, organism-based
[8] = Clearance in Wistar-Han rat at 1 mg/kg, iv or 2 mg/kg, po administered as single dose; type: ADME, organism-based; settings: in vivo
[9] = Volume of distribution at steady state in Wistar-Han rat at 1 mg/kg, iv or 2 mg/kg, po administered as single dose; type: ADME, organism-based; settings: in vivo, read-out: Vdss
[10] = Effective half life in Wistar-Han rat at 1 mg/kg, iv or 2 mg/kg, po administered as single dose; type: ADME, organism-based; settings: in vivo, read-out: t1/2eff (converted)
[11] = Oral bioavailability in Wistar-Han rat at 2 mg/kg administered as single dose; type: ADME, organism-based; settings: in vivo
[12] = test system: Rattus norvegicus; test: Antidiabetic activity in Goto Kakizaki rats assessed as inhibition of blood glucose AUC at 1 mg/kg, po pretreated for 1 hr followed by dextrose challenge measured after 20 to 60 mins by OGTT method relative to control; type: functional
[13] = test system: Rattus norvegicus; test: Antidiabetic activity in Goto Kakizaki rats assessed as inhibition of blood glucose AUC at 3 mg/kg, po pretreated for 1 hr followed by dextrose challenge measured after 20 to 60 mins by OGTT method relative to control; type: functional
[14] = test system: Rattus norvegicus; test: Antidiabetic activity in Goto Kakizaki rats assessed as inhibition of blood glucose AUC at 10 mg/kg, po pretreated for 1 hr followed by dextrose challenge measured after 20 to 60 mins by OGTT method relative to control; type: functional
[15] = test system: Rattus norvegicus; test: Antidiabetic activity in Goto Kakizaki rats assessed as inhibition of blood glucose AUC at 30 mg/kg, po pretreated for 1 hr followed by dextrose challenge measured after 20 to 60 mins by OGTT method relative to control; type: functional
[16] = target: Bile salt export pump (Homo sapiens, UniProt O95342); test: Inhibition of human BSEP expressed in baculovirus infected Sf9 insect cell membrane vesicles assessed as reduction in ATP-dependent [3H]-taurocholic acid uptake; type: ADME
Bile salt export pump, sequence (O95342 whole entry): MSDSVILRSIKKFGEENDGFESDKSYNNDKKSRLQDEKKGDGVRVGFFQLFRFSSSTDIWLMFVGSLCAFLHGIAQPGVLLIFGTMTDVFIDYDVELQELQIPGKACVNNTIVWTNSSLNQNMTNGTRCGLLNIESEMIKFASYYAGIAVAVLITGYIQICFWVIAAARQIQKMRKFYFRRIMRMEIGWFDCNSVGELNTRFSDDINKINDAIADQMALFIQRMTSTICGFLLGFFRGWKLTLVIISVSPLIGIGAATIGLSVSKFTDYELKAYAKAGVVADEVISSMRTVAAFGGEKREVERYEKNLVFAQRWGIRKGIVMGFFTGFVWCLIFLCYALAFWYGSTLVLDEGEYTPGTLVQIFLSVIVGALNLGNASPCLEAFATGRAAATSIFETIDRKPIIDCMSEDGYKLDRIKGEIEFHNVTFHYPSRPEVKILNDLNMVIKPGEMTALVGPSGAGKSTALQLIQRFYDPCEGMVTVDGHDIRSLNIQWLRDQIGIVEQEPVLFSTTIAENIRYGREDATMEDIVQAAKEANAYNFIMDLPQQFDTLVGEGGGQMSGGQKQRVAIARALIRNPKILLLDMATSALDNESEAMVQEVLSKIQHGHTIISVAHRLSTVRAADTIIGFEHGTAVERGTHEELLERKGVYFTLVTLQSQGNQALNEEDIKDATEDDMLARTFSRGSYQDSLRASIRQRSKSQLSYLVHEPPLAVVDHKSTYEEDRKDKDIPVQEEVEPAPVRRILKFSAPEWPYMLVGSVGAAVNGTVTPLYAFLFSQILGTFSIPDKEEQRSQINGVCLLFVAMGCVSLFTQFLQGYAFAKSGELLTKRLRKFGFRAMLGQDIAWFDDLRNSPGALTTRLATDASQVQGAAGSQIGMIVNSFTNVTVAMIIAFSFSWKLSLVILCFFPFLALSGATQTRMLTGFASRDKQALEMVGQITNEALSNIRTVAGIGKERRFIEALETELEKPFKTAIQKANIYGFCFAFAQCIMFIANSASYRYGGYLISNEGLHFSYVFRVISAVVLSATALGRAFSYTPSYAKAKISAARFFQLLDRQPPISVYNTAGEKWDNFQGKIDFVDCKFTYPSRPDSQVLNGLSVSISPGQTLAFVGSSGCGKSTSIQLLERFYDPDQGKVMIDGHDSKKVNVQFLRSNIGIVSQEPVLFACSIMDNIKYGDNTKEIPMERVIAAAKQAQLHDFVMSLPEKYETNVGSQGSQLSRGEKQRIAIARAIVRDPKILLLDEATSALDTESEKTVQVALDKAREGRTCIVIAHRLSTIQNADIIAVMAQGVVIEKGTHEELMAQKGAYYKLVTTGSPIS

[17] = target: T2, Free fatty acid receptor 4 (Homo sapiens, UniProt Q5NUL3); test: Agonist activity at GPR120 (unknown origin); type: functional
T2 sequence (Q5NUL3 whole entry): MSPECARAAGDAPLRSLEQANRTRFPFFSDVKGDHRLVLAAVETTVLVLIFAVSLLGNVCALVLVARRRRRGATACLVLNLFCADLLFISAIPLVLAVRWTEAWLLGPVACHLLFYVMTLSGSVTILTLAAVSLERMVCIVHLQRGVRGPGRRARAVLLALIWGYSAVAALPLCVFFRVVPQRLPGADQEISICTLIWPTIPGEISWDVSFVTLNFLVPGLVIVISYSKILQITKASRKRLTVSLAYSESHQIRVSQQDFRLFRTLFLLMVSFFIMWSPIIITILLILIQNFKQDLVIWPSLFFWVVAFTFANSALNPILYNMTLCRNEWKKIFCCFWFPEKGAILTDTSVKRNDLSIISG

[18] = Lipophilicity, log D of the compound at pH 7 at 100 uM by HPLC method; type: physicochemical; settings: buffer
[19] = target: T1, Free fatty acid receptor 1; test: Agonist activity at recombinant human GPR40 expressed in HEK293 cells assessed as increase in IP1 accumulation measured after 60 mins by HTRF assay relative to AM-1638; type: functional, cell-based
[20] = target: T1, Free fatty acid receptor 1; test: Agonist activity at recombinant human GPR40 expressed in HEK293 cells assessed as increase in IP1 accumulation measured after 60 mins in presence of 100% human serum by HTRF assay relative to AM-1638; type: functional, cell-based
[21] = target: Free fatty acid receptor 1 (Rattus norvegicus) (UniProt Q8K3T4); test: Agonist activity at recombinant rat GPR40 expressed in CHOK1 cells assessed as increase in IP1 accumulation measured after 60 mins by HTRF assay relative to AM-1638; type: functional, cell-based
Free fatty acid receptor 1 (Rattus norvegicus), sequence (Q8K3T4 whole entry): as the sequence (Q8K3T4 whole entry) above

[22] = test system: Rattus norvegicus; test: Antidiabetic activity in po dosed Goto Kakizaki rats assessed as plasma concentration required for reduction in blood glucose excursion at MED pretreated for 1 hr followed by dextrose challenge measured 3 hrs post dose by OGTT; type: functional, organism-based
[23] = test system: Rattus norvegicus; test: Antidiabetic activity in Goto Kakizaki rats assessed as plasma concentration required for reduction in blood glucose excursion at 0.3 mg/kg, po pretreated for 1 hr followed by dextrose challenge measured 3 hrs post dose by OGTT; type: functional, organism-based
[24] = test system: Rattus norvegicus; test: Antidiabetic activity in Goto Kakizaki rats assessed as plasma concentration required for reduction in blood glucose excursion at 1 mg/kg, po pretreated for 1 hr followed by dextrose challenge measured 3 hrs post dose by OGTT; type: functional, organism-based
[25] = test system: Rattus norvegicus; test: Antidiabetic activity in Goto Kakizaki rats assessed as plasma concentration required for reduction in blood glucose excursion at 3 mg/kg, po pretreated for 1 hr followed by dextrose challenge measured 3 hrs post dose by OGTT; type: functional, organism-based
[26] = test system: Rattus norvegicus; test: Antidiabetic activity in Goto Kakizaki rats assessed as plasma concentration required for reduction in blood glucose excursion at 10 mg/kg, po pretreated for 1 hr followed by dextrose challenge measured 3 hrs post dose by OGTT; type: functional, organism-based
[27] = test system: Rattus norvegicus; test: Antidiabetic activity in Goto Kakizaki rats assessed as plasma concentration required for reduction in blood glucose excursion at 30 mg/kg, po pretreated for 1 hr followed by dextrose challenge measured 3 hrs post dose by OGTT; type: functional, organism-based

| EC50 [5] | fraction unbound [7] | EC50 [17] | SMILES | EC50 [2] | EC50 [3] | minimal effective dose [6] | clearance [8] | Vd [9] | half-life [10] | bioavailability [11] | IC50 [16] | inhibition (INH) [4] | logD at 100 µM [18] | further results |
| --- | --- | --- | --- | --- | --- | --- | --- | --- | --- | --- | --- | --- | --- | --- |
| 5.2 nM | 0.001 | > 10000 nM | COc1cc(-c2ccc(C3CCc4ccc([C@H](C5CC5)[C@H](C)C(=O)[O-])cc4O3)nc2)c(F)cn1.[Na+] (stereo in doubt; 29) | 2.7 nM | 243 nM | 30 mg/kg | 1.2 mL/min/kg | 0.41 L/kg | 6.4 h | 100% | 3200 nM | – | – | inhibition in vivo at 0.3 mg/kg [1]: 35%; inhibition in vivo at 3 mg/kg ([4]; Rattus norvegicus, Sprague-Dawley, po): 108%; inhibition in vivo at 1 mg/kg [12]: 69%; inhibition in vivo at 3 mg/kg [13]: 96%; inhibition in vivo at 10 mg/kg [14]: 111%; inhibition in vivo at 30 mg/kg [15]: 121% |
| 2.3 nM | 0.003 | > 10000 nM | COc1ccc(F)c(-c2ccc(C3CCc4ccc([C@H](C5CC5)[C@H](C)C(=O)[O-])cc4O3)nc2)c1.[Na+] (stereo in doubt; 16) | – | – | 30 mg/kg | – | – | – | – | 300 nM | 99% | 2.25 | – |
| – | – | – | COc1cc(-c2ccc(C3CCc4ccc([C@H](C5CC5)[C@H](C)C(=O)O)cc4O3)nc2)c(F)cn1 (stereo in doubt; 29) | – | – | – | – | – | – | – | – | – | – | max activation [19]: > 179%; max activation [20]: > 179%; max activation [21]: > 370%; Cp [22]: 32 µM; Cp [23]: 0.44 µM; Cp [24]: 2 µM; Cp [25]: 5.4 µM; Cp [26]: 11 µM; Cp [27]: 32 µM |

| SMILES | EC50 [5] | fraction unbound [7] | EC50 [17] | EC50 [2] | EC50 [3] | minimal effective dose [6] | clearance [8] | Vd [9] | half-life [10] | bioavailability [11] | IC50 [16] | inhibition (INH) [4] | logD at 100 µM [18] | further results |
| --- | --- | --- | --- | --- | --- | --- | --- | --- | --- | --- | --- | --- | --- | --- |
| COc1ccc(F)c(-c2ccc(C3CCc4ccc([C@H](C5CC5)[C@H](C)C(=O)[O-])cc4O3)cc2)c1.[Na+] (stereo in doubt; 14) | 1.2 nM | 0.005 | > 10000 nM | 1.1 nM | 146 nM | 10 mg/kg | 3.1 mL/min/kg | 0.41 L/kg | 3.5 h | 50% | 1400 nM | 103% | 2.94 | – |
